The values that follow come from ChEMBL document CHEMBL4665716, “Identification of a novel series of azabenzimidazole-derived inhibitors of spleen tyrosine kinase” (Bioorg Med Chem Lett, 2020).

Values after ≈ are worked out from the molar mass of the structure shown.

Series [1] concerns SUD4. Briefly: Growth inhibition of human SU-DHL-4 cells. In kind it is functional.
Series [2] concerns the target Tyrosine-protein kinase SYK (Homo sapiens, UniProt P43405). Briefly: Inhibition of SYK (unknown origin).
In series [3] the target is Voltage-gated inwardly rectifying potassium channel KCNH2 (Homo sapiens, UniProt Q12809). Briefly: Inhibition of human ERG.
Sequence of Voltage-gated inwardly rectifying potassium channel KCNH2 (Q12809 whole entry): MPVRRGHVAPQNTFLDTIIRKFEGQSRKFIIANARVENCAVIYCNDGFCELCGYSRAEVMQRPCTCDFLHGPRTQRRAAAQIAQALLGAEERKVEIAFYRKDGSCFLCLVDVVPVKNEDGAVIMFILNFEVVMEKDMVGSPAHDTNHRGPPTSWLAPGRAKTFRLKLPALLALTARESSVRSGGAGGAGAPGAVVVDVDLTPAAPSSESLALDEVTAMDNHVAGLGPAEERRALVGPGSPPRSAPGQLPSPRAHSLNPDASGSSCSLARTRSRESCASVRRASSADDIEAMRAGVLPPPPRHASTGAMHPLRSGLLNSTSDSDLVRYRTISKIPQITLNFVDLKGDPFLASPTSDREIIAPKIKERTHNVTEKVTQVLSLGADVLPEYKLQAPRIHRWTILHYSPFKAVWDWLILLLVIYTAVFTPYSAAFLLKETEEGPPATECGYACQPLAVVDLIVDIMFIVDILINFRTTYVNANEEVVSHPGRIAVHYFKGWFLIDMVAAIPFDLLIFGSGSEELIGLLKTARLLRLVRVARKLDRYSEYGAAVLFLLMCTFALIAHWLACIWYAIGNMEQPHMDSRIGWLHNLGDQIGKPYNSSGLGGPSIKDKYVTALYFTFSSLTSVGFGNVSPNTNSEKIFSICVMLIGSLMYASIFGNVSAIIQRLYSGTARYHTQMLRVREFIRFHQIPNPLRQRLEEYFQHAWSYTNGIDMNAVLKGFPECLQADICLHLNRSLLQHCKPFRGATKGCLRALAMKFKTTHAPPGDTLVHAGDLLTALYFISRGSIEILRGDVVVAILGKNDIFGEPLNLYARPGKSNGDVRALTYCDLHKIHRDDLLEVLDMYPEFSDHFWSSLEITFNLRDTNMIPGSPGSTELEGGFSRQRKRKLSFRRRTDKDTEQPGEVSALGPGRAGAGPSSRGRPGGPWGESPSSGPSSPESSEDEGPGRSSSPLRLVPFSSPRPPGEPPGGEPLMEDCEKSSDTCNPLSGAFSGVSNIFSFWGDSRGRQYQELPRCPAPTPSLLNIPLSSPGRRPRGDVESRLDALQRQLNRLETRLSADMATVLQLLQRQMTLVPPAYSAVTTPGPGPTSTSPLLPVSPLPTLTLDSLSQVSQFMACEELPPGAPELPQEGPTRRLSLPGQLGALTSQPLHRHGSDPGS
Series [4] is described as follows: Intrinsic clearance in rat hepatocytes assessed per 10^6 cells. In kind it is ADME, cell-based, Hepatocyte. Conditions: read-out: CLH.
Series [5] can be described thus: Solubility of compound. The format is physicochemical.
Series [6] can be described thus: Intrinsic clearance in human liver microsome. Conditions: microsomes. In kind it is ADME.
A short description of series [7]: Lipophilicity, logD of compound. The format is physicochemical. The note with it: octanol/water.
The nature of series [8]: Apparent permeability in human Caco-2 cells. The format is ADME, cell-based.

`CNC(=O)c1ccc2c(c1)c(-c1nc3c(-n4cc(CN(C)C)cn4)ccnc3[nH]1)cn2C` displayed a GI50 in series [1] of 210 nM. Also, the IC50 in series [2] was determined as 0.15 nM.

Compound `CN(C)Cc1cc(-c2ccnc3[nH]c(-c4cccc5c4ccn5C)nc23)nn1C` gave a 50% growth inhibitory concentration (GI50) in series [1] of 1000 nM. Also, the IC50 was 2.8 nM in series [2] and 13000 nM in series [3].

Turning to `CC(=O)Nc1ccc2c(c1)c(-c1nc3c(-n4cc(CN(C)C)c(C)n4)ccnc3[nH]1)cn2C`, the GI50 in series [1] is 200 nM. Besides, in series [2], the IC50 worked out at 0.17 nM.

Consider `Cn1ccc2c(-c3nc4c(-n5cc(CN6CC[C@@H](O)C6)cn5)ccnc4[nH]3)cccc21`, for which the GI50 in series [1] is 1200 nM. In addition, the half-inhibitory concentration (IC50) is 0.48 nM in series [2] and greater than 33000 nM in series [3].

In series [1], `CN(C)Cc1cnn(-c2ccnc3[nH]c(-c4cn(C)c5ccc(C(=O)N(C)C)cc45)nc23)c1` returned a GI50 of 1700 nM. For the same compound, the results for the IC50 in series [2] and in series [3] were 1.2 nM and greater than 40000 nM, respectively.

In turn, `Cc1nn(-c2ccnc3[nH]c(-c4cccc5c4ccn5C)nc23)cc1CN1CC[C@H](O)C1` had a concentration for 50% growth inhibition (GI50) in series [1] of 1200 nM. Moreover, the IC50 worked out at 4.6 nM in series [2] and 27000 nM in series [3].

In series [2], `COc1ccc(-c2nc3c(NCC4CCNCC4)c(Cl)cnc3[nH]2)cc1` showed an IC50 of 5 nM.

Regarding `Cc1nn(-c2ccnc3[nH]c(-c4cccc5c4ccn5C)nc23)cc1CN(C)C`, in series [4], the hepatocyte CLint is 127 µL/min/1e6 cells. The concentration in solution in series [5] (solubility) was 89 µM (≈ 34.3 µg/mL). In series [1], this compound yielded a GI50 of 770 nM. Further, the results for the IC50 in series [2] and in series [3] were 0.83 nM and 2600 nM, respectively. In addition, the CLint in series [6] is 37 µL/min/mg. The log distribution coefficient (logD) in series [7] worked out at 2.8.

In the case of `Cc1nn(-c2ccnc3[nH]c(-c4cccc5c4ccn5C)nc23)cc1CN1CC[C@@H](O)C1`, the hepatocyte CLint in series [4] amounted to 40 µL/min/1e6 cells. In series [5], this compound had a solubility of less than 20 µM. For the same compound, the Papp in series [8] stood at 0.63 ×10⁻⁶ cm/s. Moreover, it took 1100 nM to inhibit growth in series [1] by half (GI50). Also, the IC50 in series [2] was found to be 0.91 nM; in series [3] it was 31000 nM. The same compound displayed a CLint in series [6] of 63 µL/min/mg. For the same compound, the log distribution coefficient (logD) in series [7] worked out at 2.9.

On to `CNC(=O)c1cc2c(-c3nc4c(-n5cc(CN(C)C)cn5)ccnc4[nH]3)cn(C)c2cn1`, for which halving of growth in series [1] (GI50) required 870 nM. Moreover, the IC50 in series [2] is 0.18 nM; in series [3] it was greater than 40000 nM.

In the case of `Cn1ccc2c(-c3nc4c(-n5cc(CN6CC[C@H](O)C6)cn5)ccnc4[nH]3)cccc21`, halving of growth in series [1] (GI50) required 1800 nM. For the same compound, the half-inhibitory concentration (IC50) in series [2] was 1 nM; in series [3], greater than 40000 nM.

`Cn1ccc2c(-c3nc4c(-n5cc(N[C@@H]6CCOC[C@@H]6N)cn5)ccnc4[nH]3)cccc21` came in with a GI50 in series [1] of 210 nM.

`CN(c1cnn(-c2ccnc3[nH]c(-c4cccc5c4ccn5C)nc23)c1)[C@@H]1CCOC[C@@H]1N` yielded a GI50 in series [1] of 1100 nM. Besides, the IC50 in series [2] is 5.5 nM; in series [3], 9200 nM.

Regarding `CN(C)Cc1cnn(-c2ccnc3[nH]c(-c4cn(C)c5ccc(S(C)(=O)=O)cc45)nc23)c1`, growth in series [1] was halved (GI50) at 440 nM. Moreover, inhibition in series [2] was half-maximal at 0.077 nM (IC50).

Turning to `Clc1cnc2[nH]c(-c3ccccc3)nc2c1OCC1CCNCC1`, in series [2], the IC50 is 30 nM.

The compound `Cc1nnc(-c2ccc3c(c2)c(-c2nc4c(-n5cc(CN(C)C)c(C)n5)ccnc4[nH]2)cn3C)o1` displayed a GI50 in series [1] of 290 nM. In series [2], this compound returned a concentration for half-maximal inhibition (IC50) of 0.098 nM.

In turn, `Cc1nnc(-c2ncn3ccc(Nc4nccc(-c5cc(CN(C)C)n(C)n5)n4)cc23)o1` had an IC50 in series [2] of 0.21 nM.

The compound `Cn1ccc2c(-c3nc4c(OCC5CCNCC5)c(Cl)cnc4[nH]3)cccc21` came in with an IC50 in series [2] of 3.51 nM.
